The values below come from US10590129B2 (Incozen Therapeutics Pvt. Ltd., priority 2010, dated 2020).

The term melting point denotes the temperature, or range, at which the solid turns liquid. Broadly, the inhibition is how much of the control response was suppressed. Low readings indicate a response near the control, high ones a response far below the control.

One series deals with MKN-45 cells. Description: Inhibition of MKN-45 proliferation (MTT). It is filed as cell-based, human. The following applies: for inhibition at 0.1 µM / inhibition at 1 µM: Homo sapiens, MKN-45, MKN-45 proliferation. Put shortly: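 High-Met human gastric adenocarcinoma MKN-45 cells plated in complete growth medium, compounds added next day and viability read 3 days later by MTT dye reduction.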

`CN(C)CCCNC(=O)c1ccc(-c2ccc3nnn(Cc4ccc5ncccc5c4)c3n2)cc1F` [Ex 72, N-(3-(dimethylamino)propyl)-2-fluoro-4-(3-(quinolin-6-ylmethyl)-3H-[1,2,3]triazolo[4,5-b]pyridin-5-yl)benzamide] had a melting point of 148 to 150 °C. The “Inhibition (% Inhibition of MKN-45 proliferation)” value in the series with MKN-45 cells (MKN-45 proliferation, 0.1 μM) is on record as “D (D = <25%)”.
Compound `CC(C)Oc1ccc(-c2ccc3nnn(Cc4ccc5ncccc5c4)c3n2)cc1F` [Ex 75, 6-((5-(3-Fluoro-4-isopropoxyphenyl)-3H-[1,2,3]triazolo[4,5-b]pyridin-3-yl)methyl)quinoline] showed a melting point of 128 to 130 °C. The inhibition at 0.1 µM in the series with MKN-45 cells (0.1 μM) is under 25%. The inhibition at 1 µM in the series with MKN-45 cells was under 25%.
Compound `CN(C)C(=O)CCNC(=O)c1ccc(-c2ccc3nnn(Cc4ccc5ncccc5c4)c3n2)cc1F` [Ex 76, N-(3-(dimethylamino)-3-oxopropyl)-2-fluoro-4-(3-(quinolin-6-ylmethyl)-3H-[1,2,3]triazolo[4,5-b]pyridin-5-yl)benzamide] registered a melting point of 163 to 165 °C. In the series with MKN-45 cells (0.1 μM), this compound registered an inhibition at 0.1 µM of 75 to 100%. This compound had an inhibition at 1 µM in the series on MKN-45 cells of 50 to 75%.
For the compound `CN(C)C(=O)CNC(=O)c1ccc(-c2ccc3nnn(Cc4ccc5ncccc5c4)c3n2)cc1F` [Ex 77, N-(2-(dimethylamino)-2-oxoethyl)-2-fluoro-4-(3-(quinolin-6-ylmethyl)-3H-[1,2,3]triazolo[4,5-b]pyridin-5-yl)benzamide], the melting point lay in the range of 177 to 179 °C. For the same compound, the inhibition at 0.1 µM in the series with MKN-45 cells (0.1 μM) is 50 to 75%. In the series on MKN-45 cells, this compound yielded an inhibition at 1 µM of 50 to 75%.
In turn, `O=C(NCC(=O)N1CCCC1)c1ccc(-c2ccc3nnn(Cc4ccc5ncccc5c4)c3n2)cc1F` [Ex 78, 2-Fluoro-N-(2-oxo-2-(pyrrolidin-1-yl)ethyl)-4-(3-(quinolin-6-ylmethyl)-3H-[1,2,3]triazolo[4,5-b]pyridin-5-yl)benzamide] returned a melting point of 175 to 177 °C. In the series on MKN-45 cells (0.1 μM), the inhibition at 0.1 µM is 50 to 75%. For the same compound, the inhibition at 1 µM in the series on MKN-45 cells lay within 50 to 75%.
As to `Fc1cc(-c2ccc3nnn(Cc4ccc5ncccc5c4)c3n2)ccc1OCC1CC1` [Ex 79, 6-((5-(4-(Cyclopropylmethoxy)-3-fluorophenyl)-3H-[1,2,3]triazolo[4,5-b]pyridin-3-yl)methyl)quinoline], the melting point is 160 to 162 °C. The inhibition at 0.1 µM in the series with MKN-45 cells (0.1 μM) was under 25%. The inhibition at 1 µM with MKN-45 cells is 50 to 75%.
`CC(C)COc1ccc(-c2ccc3nnn(Cc4ccc5ncccc5c4)c3n2)cc1F` [Ex 80, 6-((5-(3-Fluoro-4-isobutoxyphenyl)-3H-[1,2,3]triazolo[4,5-b]pyridin-3-yl)methyl)quinoline] returned a melting point of 115 to 157 °C. The compound further displayed an inhibition at 0.1 µM in the series on MKN-45 cells (0.1 μM) of under 25%. For the same compound, the inhibition at 1 µM with MKN-45 cells lay within 25 to 50%.
`CN(C)CCCOc1ccc(-c2ccc3nnn(Cc4ccc5ncccc5c4)c3n2)cc1F` [Ex 81, 3-(2-Fluoro-4-(3-(quinolin-6-ylmethyl)-3H-[1,2,3]triazolo[4,5-b]pyridin-5-yl)phenoxy)-N,N-dimethylpropan-1-amine] registered a melting point of 102 to 105 °C. This compound had an inhibition at 0.1 µM in the series with MKN-45 cells (0.1 μM) of 50 to 75%. This compound yielded an inhibition at 1 µM in the series on MKN-45 cells of 75 to 100%.
`Fc1cc(-c2ccc3nnn(Cc4ccc5ncccc5c4)c3n2)ccc1OC1CCOCC1` [Ex 85, 6-((5-(3-Fluoro-4-(tetrahydro-2H-pyran-4-yloxy)phenyl)-3H-[1,2,3]triazolo[4,5-b]pyridin-3-yl)methyl)quinoline] came in with a melting point of 165 to 167 °C. For the same compound, the inhibition at 0.1 µM in the series with MKN-45 cells (0.1 μM) is under 25%. Also, in the series on MKN-45 cells, the inhibition at 1 µM is 75 to 100%.
Compound `COCCOc1ccc(-c2ccc3nnn(Cc4ccc5ncccc5c4)c3n2)cc1F` [Ex 86, 6-((5-(3-Fluoro-4-(2-methoxyethoxy)phenyl)-3H-[1,2,3]triazolo[4,5-b]pyridin-3-yl)methyl)quinoline] returned a melting point of 122 to 124 °C. Also, the inhibition at 0.1 µM in the series on MKN-45 cells (0.1 μM) was under 25%. In addition, the inhibition at 1 µM in the series with MKN-45 cells is 75 to 100%.
As to `CCCNC(=O)c1ccc(-c2ccc3nnn(Cc4ccc5ncccc5c4)c3n2)cc1F` [Ex 87, 2-Fluoro-N-propyl-4-(3-(quinolin-6-ylmethyl)-3H-[1,2,3]triazolo[4,5-b]pyridin-5-yl)benzamide], the melting point is 157 to 159 °C. Moreover, the inhibition at 0.1 µM in the series with MKN-45 cells (0.1 μM) lay in the range of 75 to 100%. The same compound returned an inhibition at 1 µM in the series on MKN-45 cells of under 25%.
For `Cl.O=C(NC1CC1)c1ccc(-c2ccc3nnn(Cc4ccc5ncccc5c4)c3n2)cc1F` [Ex 89, N-Cyclopropyl-2-fluoro-4-(3-(quinolin-6-ylmethyl)-3H-[1,2,3]triazolo[4,5-b]pyridin-5-yl)benzamide hydrochloride], in that order: 105 to 107 °C, 75 to 100% and under 25%.
For `O=C(NCC1CC1)c1ccc(-c2ccc3nnn(Cc4ccc5ncccc5c4)c3n2)cc1F` [Ex 90, N-(Cyclopropylmethyl)-2-fluoro-4-(3-(quinolin-6-ylmethyl)-3H-[1,2,3]triazolo[4,5-b]pyridin-5-yl)benzamide] the same measures were 120 to 122 °C, 50 to 75% and 75 to 100%.
`CCCCNC(=O)c1ccc(-c2ccc3nnn(Cc4ccc5ncccc5c4)c3n2)cc1F` [Ex 91, N-Butyl-2-fluoro-4-(3-(quinolin-6-ylmethyl)-3H-[1,2,3]triazolo[4,5-b]pyridin-5-yl)benzamide] displayed a melting point of 100 to 102 °C. Besides, the inhibition at 0.1 µM in the series on MKN-45 cells (0.1 μM) lay in the range of 25 to 50%. The compound also had an inhibition at 1 µM in the series with MKN-45 cells of 50 to 75%.
Take `O=C(NCc1ccco1)c1ccc(-c2ccc3nnn(Cc4ccc5ncccc5c4)c3n2)cc1F` [Ex 92, 2-Fluoro-N-(furan-2-ylmethyl)-4-(3-(quinolin-6-ylmethyl)-3H-[1,2,3]triazolo[4,5-b]pyridin-5-yl)benzamide]: the melting point lay within 144 to 147 °C. In the series with MKN-45 cells, this compound displayed an inhibition at 1 µM of under 25%.
Compound `O=C(NCC(F)(F)F)c1ccc(-c2ccc3nnn(Cc4ccc5ncccc5c4)c3n2)cc1F` [Ex 93, 2-Fluoro-4-(3-(quinolin-6-ylmethyl)-3H-[1,2,3]triazolo[4,5-b]pyridin-5-yl)-N-(2,2,2-trifluoroethyl)benzamide] yielded a melting point of 194 to 196 °C. In the series on MKN-45 cells (0.1 μM), this compound came in with an inhibition at 0.1 µM of 25 to 50%. Further, in the series with MKN-45 cells, the inhibition at 1 µM was in the range of 25 to 50%.
On to `COCCNC(=O)c1ccc(-c2ccc3nnn(Cc4ccc5ncccc5c4)c3n2)cc1F` [Ex 94, 2-Fluoro-N-(2-methoxyethyl)-4-(3-(quinolin-6-ylmethyl)-3H-[1,2,3]triazolo[4,5-b]pyridin-5-yl)benzamide], for which the melting point is 162 to 164 °C. Besides, in the series with MKN-45 cells (0.1 μM), the inhibition at 0.1 µM was in the range of 50 to 75%. In the series on MKN-45 cells, this compound yielded an inhibition at 1 µM of under 25%.
With `CC(C)NS(=O)(=O)c1ccc(-c2ccc3nnn(Cc4ccc5ncccc5c4)c3n2)cc1` [Ex 95, N-Isopropyl-4-(3-(quinolin-6-ylmethyl)-3H-[1,2,3]triazolo[4,5-b]pyridin-5-yl)benzenesulfonamide], the melting point was 154 to 156 °C. For the same compound, the inhibition at 0.1 µM in the series with MKN-45 cells (0.1 μM) is under 25%. This compound also gave an inhibition at 1 µM in the series with MKN-45 cells of 50 to 75%.
Turning to `CN(C)c1cccc(-c2ccc3nnn(Cc4ccc5ncccc5c4)c3n2)c1` [Ex 96, N,N-Dimethyl-3-(3-(quinolin-6-ylmethyl)-3H-[1,2,3]triazolo[4,5-b]pyridin-5-yl)aniline], the melting point was in the range of 124 to 126 °C. Besides, the inhibition at 0.1 µM in the series on MKN-45 cells (0.1 μM) was under 25%. This compound also registered an inhibition at 1 µM in the series with MKN-45 cells of under 25%.
As to `CC(C)CNC(=O)c1ccc(-c2ccc3nnn(Cc4ccc5ncccc5c4)c3n2)cc1F` [Ex 97, 2-Fluoro-N-isobutyl-4-(3-(quinolin-6-ylmethyl)-3H-[1,2,3]triazolo[4,5-b]pyridin-5-yl)benzamide], the melting point is 158 to 160 °C. In addition, the inhibition at 0.1 µM with MKN-45 cells (0.1 μM) fell in the range of 25 to 50%. Further, in the series with MKN-45 cells, the inhibition at 1 µM was 25 to 50%.
As for `O=C(NC1CCCC1)c1ccc(-c2ccc3nnn(Cc4ccc5ncccc5c4)c3n2)cc1F` [Ex 98, N-Cyclopentyl-2-fluoro-4-(3-(quinolin-6-ylmethyl)-3H-[1,2,3]triazolo[4,5-b]pyridin-5-yl)benzamide], the melting point lay in the range of 166 to 168 °C. In the series with MKN-45 cells (0.1 μM), this compound displayed an inhibition at 0.1 µM of 25 to 50%. In the series on MKN-45 cells, this compound yielded an inhibition at 1 µM of 50 to 75%.
In the case of `CC(C)NC(=O)c1ccc(-c2ccc3nnn(Cc4ccc5ncccc5c4)c3n2)cc1F` [Ex 99, 2-Fluoro-N-isopropyl-4-(3-(quinolin-6-ylmethyl)-3H-[1,2,3]triazolo[4,5-b]pyridin-5-yl)benzamide], the melting point was in the range of 177 to 179 °C. In the series on MKN-45 cells (0.1 μM), this compound returned an inhibition at 0.1 µM of 50 to 75%. In the series on MKN-45 cells, the inhibition at 1 µM lay in the range of 50 to 75%.
Take `CCCNC(=O)c1ccc(-c2ccc3nnn(Cc4ccc5ncccc5c4)c3n2)cc1Cl` [Ex 102, 2-Chloro-N-propyl-4-(3-(quinolin-6-ylmethyl)-3H-[1,2,3]triazolo[4,5-b]pyridin-5-yl)benzamide]: the melting point was in the range of 128 to 130 °C. In addition, the inhibition at 0.1 µM in the series with MKN-45 cells (0.1 μM) fell in the range of 50 to 75%. Moreover, in the series on MKN-45 cells, the inhibition at 1 µM lay within 75 to 100%.
In turn, `CNC(=O)c1ccc(-c2ccc3nnn(C(C)(C)c4ccc5ncccc5c4)c3n2)cc1F` [Ex 103, 2-Fluoro-N-methyl-4-(3-(2-(quinolin-6-yl)propan-2-yl)-3H-[1,2,3]triazolo[4,5-b]pyridin-5-yl)benzamide] gave a melting point of 171 to 173 °C. Also, the inhibition at 0.1 µM in the series with MKN-45 cells (0.1 μM) is under 25%.
`O=C(NC1CCC1)c1ccc(-c2ccc3nnn(Cc4ccc5ncccc5c4)c3n2)cc1F` [Ex 104, N-Cyclobutyl-2-fluoro-4-(3-(quinolin-6-ylmethyl)-3H-[1,2,3]triazolo[4,5-b]pyridin-5-yl)benzamide] had a melting point of 171 to 174 °C. The inhibition at 0.1 µM with MKN-45 cells (0.1 μM) is 50 to 75%. In the series on MKN-45 cells, this compound gave an inhibition at 1 µM of 75 to 100%.
`CCCNC(=O)c1ccc(-c2ccc3nnn(C(C)(C)c4ccc5ncccc5c4)c3n2)cc1F` [Ex 105, 2-Fluoro-N-propyl-4-(3-(2-(quinolin-6-yl)propan-2-yl)-3H-[1,2,3]triazolo[4,5-b]pyridin-5-yl)benzamide] came in with a melting point of 162 to 164 °C. In addition, the inhibition at 0.1 µM in the series on MKN-45 cells (0.1 μM) is under 25%. Besides, the inhibition at 1 µM in the series on MKN-45 cells was under 25%.
